Publication PMC9572860, “Antiprotozoal Activity of Azabicyclo-Nonanes Linked to Tetrazole or Sulfonamide Cores” (Molecules, 2022)
Like-named read-outs stand apart in the source and are kept apart here.

Columns and labels:
P. falciparum K1 [1] = assay: In vitro microplate 3H-hypoxanthine incorporation assay against P. falciparum K1; type: cell-based, Plasmodium falciparum; settings: for S.I. = IC50 (Cyt.)/IC50 (P.f. K1): L-6 cytotoxicity over P.f. K1; for IC50: Plasmodium falciparum
Procedure: (§1) Compounds were tested for their activities against strains of P. falciparum and T. b. rhodesiense via microplate assays. Their cytotoxicity was determined with rat skeletal myoblasts (L-6 cells). Chloroquine and melarsoprol served as standards (Table 1).
(§2) In vitro activity against erythrocytic stages of P. falciparum was determined using a ^3H-hypoxanthine incorporation assay, using the drug-sensitive NF54 strain [21] or the chloroquine- and pyrimethamine-resistant K1 strain [22]. Compounds were dissolved in DMSO at 10 mg/mL and added to parasite cultures incubated in RPMI 1640 medium without hypoxanthine, supplemented with HEPES (5.94 g/L), NaHCO3 (2.1 g/L), neomycin (100 U/mL), Albumax (5 g/L) and washed human red cells A+ at 2.5% hematocrit (0.3% parasitemia). Serial drug dilutions of 11 three-fold dilution steps covering a range from 100 to 0.002 µg/mL were prepared. The 96-well plates were incubated in a humidified atmosphere at 37 °C; 4% CO2, 3% O2, 93% N2. After 48 h, 0.05 mL of ^3H-hypoxanthine (=0.5 µCi) was added to each well of the plate. The plates were incubated for an additional 24 h under the same conditions. The plates were then harvested with a Betaplate cell harvester (Wallac, Zurich, Switzerland). The red blood cells were transferred onto a glass fiber filter and washed with distilled water. The dried filters were inserted into a plastic foil with 10 mL of scintillation fluid and counted in a Betaplate liquid scintillation counter (Wallac, Zurich, Switzerland). IC50 values were calculated from sigmoidal inhibition curves by linear regression using Microsoft Excel. Chloroquine (Sigma C6628) was used as control.

P. falciparum NF54 = assay: In vitro microplate 3H-hypoxanthine incorporation assay against P. falciparum NF54; type: cell-based, Plasmodium falciparum
Procedure: as §1, §2

[2] = In vitro cytotoxicity with L-6 cells; type: cell-based, rat
Procedure: as §1
(§3) Assays were performed in 96-well microtiter plates, each well containing 0.1 mL of RPMI 1640 medium supplemented with 1% L-glutamine (200 mM) and 10% fetal bovine serum and 4000 L-6 cells (a primary cell line derived from rat skeletal myoblasts, ATCC CRL-1458™). Serial drug dilutions of 11 three-fold dilution steps covering a range from 100 to 0.002 μg/mL were prepared. After 70 h of incubation, the plates were inspected under an inverted microscope to assure the growth of the controls and sterile conditions. Then, 0.01 mL resazurin solution (resazurin, 12.5 mg in 100 ml double-distilled water) was added to each well and the plates incubated for another 2 h. The plates were read with a Spectramax Gemini XS microplate fluorometer (Molecular Devices Cooperation, Sunnyvale, CA, USA) using an excitation wavelength of 536 nm and an emission wavelength of 588 nm. The IC50 values were calculated by linear regression from the sigmoidal dose inhibition curves using SoftmaxPro software (Molecular Devices Cooperation, Sunnyvale, CA, USA). Podophyllotoxin (Sigma P4405) was used as control.

L-6 cells [3] = system: L-6 cells; parameters: method as in doi:10.1007/s00706-007-0634-1; settings: rat skeletal myoblasts; read-out: Cytotox. L-6 Cells IC50; cited from earlier work
[4] = system: T. b. rhodesiense STIB 900; parameters: method as in doi:10.1007/s00706-007-0634-1; settings: cited from earlier work; for S.I. = IC50 (Cyt.)/IC50 (T.b.r.): L-6 cytotoxicity over T.b.r.; for IC50: read-out: T. Brucei Rhodesiense IC50
P. falciparum K1 [5] = system: P. falciparum K1; parameters: method as in doi:10.1007/s00706-007-0634-1; settings: cited from earlier work; for IC50: K1 strain resistant to chloroquine and pyrimethamine; for S.I. = IC50 (Cyt.)/IC50 (P.f. K1): L-6 cytotoxicity over P.f. K1
[6] = system: T. b. rhodesiense STIB 900; assay: In vitro microplate resazurin assay against T. brucei rhodesiense; type: cell-based, Trypanosoma brucei rhodesiense; settings: for S.I. = IC50 (Cyt.)/IC50 (T.b.r.): L-6 cytotoxicity over T.b.r.; for IC50: Trypanosoma brucei, STIB 900 bloodstream forms, average of four determinations, read-out: T. Brucei Rhodesiense IC50
Procedure: as §1
Minimum essential medium (50 µL) supplemented with 25 mM HEPES, 1 g/L additional glucose, 1% MEM nonessential amino acids (100×), 0.2 mM 2-mercaptoethanol, 1 mM Na-pyruvate and 15% heat inactivated horse serum was added to each well of a 96-well microtiter plate. Serial drug dilutions of 11 three-fold dilution steps covering a range from 100 to 0.002 μg/mL were prepared. Then, 4 × 10^3 bloodstream forms of T. b. rhodesiense STIB 900 in 50 µL was added to each well and the plate incubated at 37 °C under a 5% CO2 atmosphere for 70 h. Ten microliters of resazurin solution (resazurin, 12.5 mg in 100 mL double-distilled water) was then added to each well and incubation continued for an additional 2–4 h. The plates were then read with a Spectramax Gemini XS microplate fluorometer (Molecular Devices Cooperation, Sunnyvale, CA, USA) using an excitation wavelength of 536 nm and an emission wavelength of 588 nm. Data were analyzed with the graphic program Softmax Pro (Molecular Devices Cooperation, Sunnyvale, CA, USA), which calculated IC50 values by linear regression and 4-parameter logistic regression from the sigmoidal dose inhibition curves. Melarsoprol (Arsobal Sanofi-Aventis, received from WHO) was used as control.

L-6 cells [7] = assay: In vitro cytotoxicity with L-6 cells; type: cell-based, rat; settings: rat skeletal myoblasts; average of four determinations; read-out: Cytotox. L-6 Cells IC50
Procedure: as §1, §3

[8] = K1 strain resistant to chloroquine and pyrimethamine, average of four determinations, read-out: P. Falciparum K1 IC50

SMILES	S.I. = IC50 (Cyt.)/IC50 (P.f. K1) (P. falciparum K1 [1])	IC50 (L-6 cells [3]) [µM]	S.I. = IC50 (Cyt.)/IC50 (T.b.r.) [4]	IC50 [4] [nM]	IC50 (P. falciparum K1 [5]) [nM]	S.I. = IC50 (Cyt.)/IC50 (P.f. K1) (P. falciparum K1 [5])	IC50 (P. falciparum K1 [1]; [8]) [nM]	S.I. = IC50 (Cyt.)/IC50 (T.b.r.) [6]	IC50 [6] [nM]	IC50 at 72 h ([2]; rat) [µM]	other results
CCN(CC)CCCC(C)Nc1ccnc2cc(Cl)ccc12 (centres unmarked) [CQ, chloroquine, reference compound]	606	–	–	–	–	–	–	–	–	–	IC50 (P. falciparum K1 [1]; K1, read-out: P. Falciparum K1 IC50): 150 nM; S.I. = IC50 (Cyt.)/IC50 (P.f. NF54) (P. falciparum NF54; L-6 cytotoxicity over P.f. NF54): 23308; IC50 (P. falciparum NF54; Plasmodium falciparum, NF54, read-out: P. Falciparum NF54 IC50): 3.9 nM; IC50 at 72 h ([2]; rat skeletal myoblasts, average of four determinations, read-out: Cytotox. L-6 Cells IC50): 90.9 µM
Cc1ccc(S(=O)(=O)N2CCC3(N4CCCCC4)CC(c4ccccc4)C2C(c2ccccc2)C3)cc1 (centres unmarked) [Compound 16]	–	10.5	3.96	2650	1260	8.33	–	–	–	–	–
Cc1ccc(S(=O)(=O)N2CCC3(N4CCCC4)CC(c4ccccc4)C2C(c2ccccc2)C3)cc1 (centres unmarked) [Compound 17]	–	9.42	7.48	1260	1300	7.25	–	–	–	–	–
CN(C)C12CCN(CCN)C([C@@H](c3ccccc3)C1)[C@@H](c1ccccc1)C2 (racemic) [Compound 6, rac-(7R,8R)-2-[5-(Dimethylamino)-7,8-diphenyl-2-azabicyclo[3.2.2]nonan-2-yl]ethan-1-amine]	59.7	–	–	–	–	–	360	7.36	2920	21.5	–
COc1cc([C@@H]2c3cc4c(cc3[C@H](O)[C@H]3COC(=O)[C@H]23)OCO4)cc(OC)c1OC [POD, podophyllotoxin, reference compound]	–	–	–	–	–	–	–	–	–	–	IC50 (L-6 cells [7]): 12 nM
NCCN1CC2[C@H](c3ccccc3)CC(N3CCCC3)(C[C@H]2c2ccccc2)C1 (racemic) [Compound 9, rac-(6R,9R)-2-[6,9-Diphenyl-1-(pyrrolidin-1-yl)-3-azabicyclo[3.2.2]nonan-3-yl]ethan-1-amine]	14.5	–	–	–	–	–	630	21.7	420	9.12	–
